{"source": "paper PMC6274539", "about": "“Photoactivatable Caged Prodrugs of VEGFR-2 Kinase Inhibitors” (Molecules, 2016)", "assay_in_all_cases": "kinase profiling, radioactive filter binding assay", "format_in_all_cases": "biochemical", "key": {"CAMK1": {"target": "CAMK1 (Homo sapiens, UniProt Q14012)", "details": "0.1 µM compound, assay duplicates; read-out: residual activity of CAMK1, mean percentage activity", "description": "(§1) The used method was a radioactive filter binding assay using ^33P ATP, for details see references. The substances were dissolved in DMSO at tested concentration of 0.1 µM. The mean percentage residual kinase activity and standard deviations of assay duplicates were determined. Analyses were performed by the International Center for Kinase Profiling at the University of Dundee, UK."}, "PKD1": {"target": "PKD1 (Homo sapiens, UniProt Q15139)", "details": "0.1 µM compound, assay duplicates; read-out: residual activity of PKD1, mean percentage activity", "description": "as §1"}, "MKK1": {"target": "MKK1 (Homo sapiens, UniProt Q02750)", "details": "0.1 µM compound, assay duplicates; read-out: residual activity of MKK1, mean percentage activity", "description": "as §1"}, "Lck": {"target": "Lck (Homo sapiens, UniProt P06239)", "sequence (P06239 whole entry)": "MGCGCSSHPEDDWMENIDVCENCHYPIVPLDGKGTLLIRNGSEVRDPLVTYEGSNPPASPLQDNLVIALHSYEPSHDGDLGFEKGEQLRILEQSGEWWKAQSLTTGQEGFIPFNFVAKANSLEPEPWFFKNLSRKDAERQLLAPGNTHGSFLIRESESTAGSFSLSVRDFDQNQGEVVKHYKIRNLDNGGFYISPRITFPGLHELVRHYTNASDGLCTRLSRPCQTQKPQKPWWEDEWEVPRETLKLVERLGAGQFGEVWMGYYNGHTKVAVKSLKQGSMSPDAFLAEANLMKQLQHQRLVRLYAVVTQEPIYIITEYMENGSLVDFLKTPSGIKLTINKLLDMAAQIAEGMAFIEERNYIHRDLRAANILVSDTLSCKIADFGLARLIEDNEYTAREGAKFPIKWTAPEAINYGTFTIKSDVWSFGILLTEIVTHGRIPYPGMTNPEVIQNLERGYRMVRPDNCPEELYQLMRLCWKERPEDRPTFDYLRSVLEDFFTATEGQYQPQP", "details": "0.1 µM compound, assay duplicates; read-out: residual activity of Lck, mean percentage activity", "description": "as §1"}, "GSK3b": {"target": "GSK3b (Homo sapiens, UniProt P49841)", "details": "0.1 µM compound, assay duplicates; read-out: residual activity of GSK3b, mean percentage activity", "description": "as §1"}, "VEG-FR": {"test_system": "VEG-FR", "details": "0.1 µM compound, assay duplicates", "description": "as §1"}, "DYRK3": {"target": "DYRK3 (Homo sapiens, UniProt O43781)", "sequence (O43781 whole entry)": "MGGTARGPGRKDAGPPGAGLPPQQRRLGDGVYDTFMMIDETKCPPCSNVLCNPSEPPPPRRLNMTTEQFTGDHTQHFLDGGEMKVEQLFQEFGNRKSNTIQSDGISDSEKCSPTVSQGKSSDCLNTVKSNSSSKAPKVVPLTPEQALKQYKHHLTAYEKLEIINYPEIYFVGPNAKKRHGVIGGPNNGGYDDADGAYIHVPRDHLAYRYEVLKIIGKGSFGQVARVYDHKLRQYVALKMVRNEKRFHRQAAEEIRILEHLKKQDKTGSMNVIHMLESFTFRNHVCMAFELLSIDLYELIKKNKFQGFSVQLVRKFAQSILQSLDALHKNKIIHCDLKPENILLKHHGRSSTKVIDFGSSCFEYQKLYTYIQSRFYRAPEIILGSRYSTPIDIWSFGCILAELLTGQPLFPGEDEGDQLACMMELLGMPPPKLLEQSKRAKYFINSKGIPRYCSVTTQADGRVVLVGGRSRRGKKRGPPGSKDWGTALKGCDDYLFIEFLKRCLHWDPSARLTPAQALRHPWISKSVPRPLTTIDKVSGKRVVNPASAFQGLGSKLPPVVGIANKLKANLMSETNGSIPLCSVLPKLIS", "details": "0.1 µM compound, assay duplicates; read-out: residual activity of DYRK3, mean percentage activity", "description": "as §1"}, "MSK1": {"target": "MSK1 (Homo sapiens, UniProt O75582)", "sequence (O75582 whole entry)": "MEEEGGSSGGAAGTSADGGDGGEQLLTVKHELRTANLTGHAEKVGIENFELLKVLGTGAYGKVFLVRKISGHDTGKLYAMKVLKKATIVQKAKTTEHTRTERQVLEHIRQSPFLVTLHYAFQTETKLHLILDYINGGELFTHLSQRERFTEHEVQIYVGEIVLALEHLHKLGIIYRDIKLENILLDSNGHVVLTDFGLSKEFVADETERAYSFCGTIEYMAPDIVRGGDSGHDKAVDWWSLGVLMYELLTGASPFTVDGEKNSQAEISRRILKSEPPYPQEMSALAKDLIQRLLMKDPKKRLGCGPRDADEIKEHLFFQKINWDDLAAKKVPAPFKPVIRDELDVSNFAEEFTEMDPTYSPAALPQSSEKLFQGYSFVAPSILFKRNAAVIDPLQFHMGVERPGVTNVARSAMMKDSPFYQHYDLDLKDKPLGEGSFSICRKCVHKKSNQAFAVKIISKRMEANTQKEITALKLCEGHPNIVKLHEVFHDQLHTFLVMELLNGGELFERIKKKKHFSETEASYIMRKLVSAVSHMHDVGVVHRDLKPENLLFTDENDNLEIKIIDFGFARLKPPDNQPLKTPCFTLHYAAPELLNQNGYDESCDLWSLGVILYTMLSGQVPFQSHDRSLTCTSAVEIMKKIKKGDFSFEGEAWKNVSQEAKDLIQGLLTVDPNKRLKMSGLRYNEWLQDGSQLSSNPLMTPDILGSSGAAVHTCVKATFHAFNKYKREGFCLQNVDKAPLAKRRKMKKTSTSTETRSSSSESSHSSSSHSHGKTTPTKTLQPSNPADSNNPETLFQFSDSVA", "details": "0.1 µM compound, assay duplicates; read-out: residual activity of MSK1, mean percentage activity", "description": "as §1"}, "ERK2": {"target": "ERK2 (Homo sapiens, UniProt P28482)", "details": "0.1 µM compound, assay duplicates; read-out: residual activity of ERK2, mean percentage activity", "description": "as §1"}, "PAK5": {"target": "PAK5 (Homo sapiens, UniProt Q9P286)", "details": "0.1 µM compound, assay duplicates; read-out: residual activity of PAK5, mean percentage activity", "description": "as §1"}, "PKBa": {"target": "PKBa (Homo sapiens, UniProt P31749)", "details": "0.1 µM compound, assay duplicates; read-out: residual activity of PKBa, mean percentage activity", "description": "as §1"}, "Src": {"target": "Src (Homo sapiens, UniProt P12931)", "sequence (P12931 whole entry)": "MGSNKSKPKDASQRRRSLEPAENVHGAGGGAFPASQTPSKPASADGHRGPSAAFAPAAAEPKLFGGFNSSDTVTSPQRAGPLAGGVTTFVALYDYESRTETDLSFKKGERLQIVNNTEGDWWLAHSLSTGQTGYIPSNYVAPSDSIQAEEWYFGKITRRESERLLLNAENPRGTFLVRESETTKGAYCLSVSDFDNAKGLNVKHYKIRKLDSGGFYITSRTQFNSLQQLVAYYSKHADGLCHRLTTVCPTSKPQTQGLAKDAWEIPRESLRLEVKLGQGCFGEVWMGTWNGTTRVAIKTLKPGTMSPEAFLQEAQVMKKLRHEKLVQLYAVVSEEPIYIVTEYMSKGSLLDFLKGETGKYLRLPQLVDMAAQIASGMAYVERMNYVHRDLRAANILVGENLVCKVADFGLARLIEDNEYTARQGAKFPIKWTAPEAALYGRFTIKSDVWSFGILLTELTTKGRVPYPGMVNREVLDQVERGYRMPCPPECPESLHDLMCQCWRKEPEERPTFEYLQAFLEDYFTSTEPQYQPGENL", "details": "0.1 µM compound, assay duplicates; read-out: residual activity of Src, mean percentage activity", "description": "as §1"}, "PRK2": {"target": "PRK2 (Homo sapiens, UniProt Q16513)", "sequence (Q16513 whole entry)": "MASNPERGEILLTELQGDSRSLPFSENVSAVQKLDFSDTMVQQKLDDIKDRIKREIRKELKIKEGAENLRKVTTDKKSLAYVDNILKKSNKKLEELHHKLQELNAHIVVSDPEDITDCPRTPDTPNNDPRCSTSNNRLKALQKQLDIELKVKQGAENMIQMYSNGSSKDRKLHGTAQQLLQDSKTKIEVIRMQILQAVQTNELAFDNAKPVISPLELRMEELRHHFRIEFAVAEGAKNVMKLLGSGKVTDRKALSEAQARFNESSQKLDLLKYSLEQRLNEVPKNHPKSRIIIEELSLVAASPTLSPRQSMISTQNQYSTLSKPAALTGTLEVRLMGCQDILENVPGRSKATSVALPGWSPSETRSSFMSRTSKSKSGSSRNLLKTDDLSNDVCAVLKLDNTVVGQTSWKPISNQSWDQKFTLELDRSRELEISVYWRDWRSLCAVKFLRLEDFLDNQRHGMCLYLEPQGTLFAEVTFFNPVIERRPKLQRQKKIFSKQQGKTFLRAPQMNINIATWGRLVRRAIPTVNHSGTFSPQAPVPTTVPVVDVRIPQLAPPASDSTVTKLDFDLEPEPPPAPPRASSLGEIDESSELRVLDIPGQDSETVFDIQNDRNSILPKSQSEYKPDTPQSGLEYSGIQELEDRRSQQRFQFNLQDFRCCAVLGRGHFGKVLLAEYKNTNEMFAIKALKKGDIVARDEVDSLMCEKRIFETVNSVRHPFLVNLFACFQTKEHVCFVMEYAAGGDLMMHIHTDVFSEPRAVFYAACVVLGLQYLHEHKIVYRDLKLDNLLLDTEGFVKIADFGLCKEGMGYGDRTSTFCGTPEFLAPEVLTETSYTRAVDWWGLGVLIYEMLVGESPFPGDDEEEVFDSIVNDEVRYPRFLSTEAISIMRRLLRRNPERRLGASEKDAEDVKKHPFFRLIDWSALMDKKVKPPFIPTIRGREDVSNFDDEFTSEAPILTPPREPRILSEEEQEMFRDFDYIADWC", "details": "0.1 µM compound, assay duplicates; read-out: residual activity of PRK2, mean percentage activity", "description": "as §1"}, "PKBb": {"target": "PKBb (Homo sapiens, UniProt P31751)", "sequence (P31751 whole entry)": "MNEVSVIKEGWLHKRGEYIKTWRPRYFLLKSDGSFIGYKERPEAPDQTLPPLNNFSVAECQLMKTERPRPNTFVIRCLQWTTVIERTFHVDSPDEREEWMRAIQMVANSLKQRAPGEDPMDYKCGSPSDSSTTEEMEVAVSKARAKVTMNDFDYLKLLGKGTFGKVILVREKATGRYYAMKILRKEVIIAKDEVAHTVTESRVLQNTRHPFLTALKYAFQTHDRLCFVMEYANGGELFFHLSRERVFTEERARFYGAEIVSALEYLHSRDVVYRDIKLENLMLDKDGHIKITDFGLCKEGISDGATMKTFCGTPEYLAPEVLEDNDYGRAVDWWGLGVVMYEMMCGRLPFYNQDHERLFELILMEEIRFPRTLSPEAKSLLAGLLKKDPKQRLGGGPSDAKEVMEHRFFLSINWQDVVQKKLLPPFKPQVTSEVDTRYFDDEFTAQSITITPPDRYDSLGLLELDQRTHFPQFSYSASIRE", "details": "0.1 µM compound, assay duplicates; read-out: residual activity of PKBb, mean percentage activity", "description": "as §1"}, "DYRK2": {"target": "DYRK2 (Homo sapiens, UniProt Q92630)", "details": "0.1 µM compound, assay duplicates; read-out: residual activity of DYRK2, mean percentage activity", "description": "as §1"}, "PAK4": {"target": "PAK4 (Homo sapiens, UniProt O96013)", "details": "0.1 µM compound, assay duplicates; read-out: residual activity of PAK4, mean percentage activity", "description": "as §1"}, "BTK": {"target": "BTK (Homo sapiens, UniProt Q06187)", "details": "0.1 µM compound, assay duplicates; read-out: residual activity of BTK, mean percentage activity", "description": "as §1"}, "PIM3": {"target": "PIM3 (Homo sapiens, UniProt Q86V86)", "details": "0.1 µM compound, assay duplicates; read-out: residual activity of PIM3, mean percentage activity", "description": "as §1"}, "IRR": {"target": "IRR (Homo sapiens, UniProt P14616)", "details": "0.1 µM compound, assay duplicates; read-out: residual activity of IRR, mean percentage activity", "description": "as §1"}, "CHK2": {"target": "CHK2 (Homo sapiens, UniProt O96017)", "details": "0.1 µM compound, assay duplicates; read-out: residual activity of CHK2, mean percentage activity", "description": "as §1"}, "MST4": {"target": "MST4 (Homo sapiens, UniProt Q9P289)", "details": "0.1 µM compound, assay duplicates; read-out: residual activity of MST4, mean percentage activity", "description": "as §1"}, "HIPK2": {"target": "HIPK2 (Homo sapiens, UniProt Q9H2X6)", "details": "0.1 µM compound, assay duplicates; read-out: residual activity of HIPK2, mean percentage activity", "description": "as §1"}, "MAPKAP-K2": {"target": "MAPKAP-K2 (Homo sapiens, UniProt P49137)", "details": "0.1 µM compound, assay duplicates; read-out: residual activity of MAPKAP-K2, mean percentage activity", "description": "as §1"}, "NEK2a": {"target": "NEK2a (Homo sapiens, UniProt P51955)", "sequence (P51955 whole entry)": "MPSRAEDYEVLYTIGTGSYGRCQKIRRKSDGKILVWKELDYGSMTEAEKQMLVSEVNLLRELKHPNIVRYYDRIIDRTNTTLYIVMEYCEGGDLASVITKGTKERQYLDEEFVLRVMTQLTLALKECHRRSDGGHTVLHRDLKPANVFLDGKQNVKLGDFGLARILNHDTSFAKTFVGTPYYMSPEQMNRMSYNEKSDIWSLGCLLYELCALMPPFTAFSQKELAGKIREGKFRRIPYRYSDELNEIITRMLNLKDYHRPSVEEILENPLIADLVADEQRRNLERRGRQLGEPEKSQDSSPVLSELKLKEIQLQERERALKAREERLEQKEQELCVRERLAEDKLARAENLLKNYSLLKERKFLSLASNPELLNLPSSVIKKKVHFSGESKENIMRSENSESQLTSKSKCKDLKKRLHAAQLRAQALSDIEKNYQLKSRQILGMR", "details": "0.1 µM compound, assay duplicates; read-out: residual activity of NEK2a, mean percentage activity", "description": "as §1"}, "NEK6": {"target": "NEK6 (Homo sapiens, UniProt Q9HC98)", "details": "0.1 µM compound, assay duplicates; read-out: residual activity of NEK6, mean percentage activity", "description": "as §1"}, "PIM2": {"target": "PIM2 (Homo sapiens, UniProt Q9P1W9)", "details": "0.1 µM compound, assay duplicates; read-out: residual activity of PIM2, mean percentage activity", "description": "as §1"}, "ERK1": {"target": "ERK1 (Homo sapiens, UniProt P27361)", "sequence (P27361 whole entry)": "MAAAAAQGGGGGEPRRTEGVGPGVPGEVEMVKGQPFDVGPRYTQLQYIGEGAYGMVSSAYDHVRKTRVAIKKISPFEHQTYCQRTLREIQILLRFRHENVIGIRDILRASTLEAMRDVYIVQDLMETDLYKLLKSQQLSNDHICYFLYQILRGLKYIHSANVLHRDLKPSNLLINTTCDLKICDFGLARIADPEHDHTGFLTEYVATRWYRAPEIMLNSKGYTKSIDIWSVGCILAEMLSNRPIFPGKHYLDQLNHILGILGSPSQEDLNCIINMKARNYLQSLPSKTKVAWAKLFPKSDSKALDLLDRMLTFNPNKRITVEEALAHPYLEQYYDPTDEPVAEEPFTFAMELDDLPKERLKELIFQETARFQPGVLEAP", "details": "0.1 µM compound, assay duplicates; read-out: residual activity of ERK1, mean percentage activity", "description": "as §1"}, "CSK": {"target": "CSK (Homo sapiens, UniProt P41240)", "details": "0.1 µM compound, assay duplicates; read-out: residual activity of CSK, mean percentage activity", "description": "as §1"}, "CK1": {"target": "CK1 (Homo sapiens, UniProt P48730)", "details": "0.1 µM compound, assay duplicates; read-out: residual activity of CK1, mean percentage activity", "description": "as §1"}}, "data": [{"smiles": "COc1cc(C2=C(c3c[nH]c4ccccc34)C(=O)NC2=O)cc(OC)c1OC", "note": "[Compound 1, 3-(1H-Indol-3-yl)-4-(3,4,5-trimethoxyphenyl)-1H-pyrrole-2,5-dione]", "values": [{"measurement": "remaining activity at 0.1 µM", "setting": "CAMK1", "result": 107, "unit": "%"}, {"measurement": "remaining activity at 0.1 µM", "setting": "PKD1", "result": 100, "unit": "%"}, {"measurement": "remaining activity at 0.1 µM", "setting": "MKK1", "result": 54, "unit": "%"}, {"measurement": "remaining activity at 0.1 µM", "setting": "Lck", "result": 91, "unit": "%"}, {"measurement": "remaining activity at 0.1 µM", "setting": "GSK3b", "result": 21, "unit": "%"}, {"measurement": "residual activity of VEG-FR, mean percentage activity", "setting": "VEG-FR", "result": 10, "unit": "%"}, {"measurement": "remaining activity at 0.1 µM", "setting": "DYRK3", "result": 85, "unit": "%"}, {"measurement": "remaining activity at 0.1 µM", "setting": "MSK1", "result": 69, "unit": "%"}, {"measurement": "remaining activity at 0.1 µM", "setting": "ERK2", "result": 94, "unit": "%"}, {"measurement": "remaining activity at 0.1 µM", "setting": "PAK5", "result": 105, "unit": "%"}, {"measurement": "remaining activity at 0.1 µM", "setting": "PKBa", "result": 66, "unit": "%"}, {"measurement": "remaining activity at 0.1 µM", "setting": "Src", "result": 81, "unit": "%"}, {"measurement": "remaining activity at 0.1 µM", "setting": "PRK2", "result": 84, "unit": "%"}, {"measurement": "remaining activity at 0.1 µM", "setting": "PKBb", "result": 98, "unit": "%"}, {"measurement": "remaining activity at 0.1 µM", "setting": "DYRK2", "result": 57, "unit": "%"}, {"measurement": "remaining activity at 0.1 µM", "setting": "PAK4", "result": 75, "unit": "%"}, {"measurement": "remaining activity at 0.1 µM", "setting": "BTK", "result": 93, "unit": "%"}, {"measurement": "remaining activity at 0.1 µM", "setting": "PIM3", "result": 5, "unit": "%"}, {"measurement": "remaining activity at 0.1 µM", "setting": "IRR", "result": 58, "unit": "%"}, {"measurement": "remaining activity at 0.1 µM", "setting": "CHK2", "result": 64, "unit": "%"}, {"measurement": "remaining activity at 0.1 µM", "setting": "MST4", "result": 94, "unit": "%"}, {"measurement": "remaining activity at 0.1 µM", "setting": "HIPK2", "result": 23, "unit": "%"}, {"measurement": "remaining activity at 0.1 µM", "setting": "MAPKAP-K2", "result": 94, "unit": "%"}, {"measurement": "remaining activity at 0.1 µM", "setting": "NEK2a", "result": 87, "unit": "%"}, {"measurement": "remaining activity at 0.1 µM", "setting": "NEK6", "result": 96, "unit": "%"}, {"measurement": "remaining activity at 0.1 µM", "setting": "PIM2", "result": 115, "unit": "%"}, {"measurement": "remaining activity at 0.1 µM", "setting": "ERK1", "result": 100, "unit": "%"}, {"measurement": "remaining activity at 0.1 µM", "setting": "CSK", "result": 138, "unit": "%"}, {"measurement": "remaining activity at 0.1 µM", "setting": "CK1", "result": 86, "unit": "%"}]}, {"smiles": "COc1cc2c3c(c4c5ccccc5[nH]c4c2c(OC)c1OC)C(=O)NC3=O", "note": "[Compound 3, 5,6,7-Trimethoxybenzo[a]pyrrolo[3,4-c]carbazole-1,3(2H,8H)-dione]", "values": [{"measurement": "remaining activity at 0.1 µM", "setting": "CAMK1", "result": 94, "unit": "%"}, {"measurement": "remaining activity at 0.1 µM", "setting": "PKD1", "result": 60, "unit": "%"}, {"measurement": "remaining activity at 0.1 µM", "setting": "MKK1", "result": 67, "unit": "%"}, {"measurement": "remaining activity at 0.1 µM", "setting": "Lck", "result": 91, "unit": "%"}, {"measurement": "remaining activity at 0.1 µM", "setting": "GSK3b", "result": 5, "unit": "%"}, {"measurement": "residual activity of VEG-FR, mean percentage activity", "setting": "VEG-FR", "result": 37, "unit": "%"}, {"measurement": "remaining activity at 0.1 µM", "setting": "DYRK3", "result": 46, "unit": "%"}, {"measurement": "remaining activity at 0.1 µM", "setting": "MSK1", "result": 55, "unit": "%"}, {"measurement": "remaining activity at 0.1 µM", "setting": "ERK2", "result": 93, "unit": "%"}, {"measurement": "remaining activity at 0.1 µM", "setting": "PAK5", "result": 84, "unit": "%"}, {"measurement": "remaining activity at 0.1 µM", "setting": "PKBa", "result": 81, "unit": "%"}, {"measurement": "remaining activity at 0.1 µM", "setting": "Src", "result": 86, "unit": "%"}, {"measurement": "remaining activity at 0.1 µM", "setting": "PRK2", "result": 52, "unit": "%"}, {"measurement": "remaining activity at 0.1 µM", "setting": "PKBb", "result": 91, "unit": "%"}, {"measurement": "remaining activity at 0.1 µM", "setting": "DYRK2", "result": 17, "unit": "%"}, {"measurement": "remaining activity at 0.1 µM", "setting": "PAK4", "result": 55, "unit": "%"}, {"measurement": "remaining activity at 0.1 µM", "setting": "BTK", "result": 90, "unit": "%"}, {"measurement": "remaining activity at 0.1 µM", "setting": "PIM3", "result": 4, "unit": "%"}, {"measurement": "remaining activity at 0.1 µM", "setting": "IRR", "result": 41, "unit": "%"}, {"measurement": "remaining activity at 0.1 µM", "setting": "CHK2", "result": 63, "unit": "%"}, {"measurement": "remaining activity at 0.1 µM", "setting": "MST4", "result": 69, "unit": "%"}, {"measurement": "remaining activity at 0.1 µM", "setting": "HIPK2", "result": 7, "unit": "%"}, {"measurement": "remaining activity at 0.1 µM", "setting": "MAPKAP-K2", "result": 95, "unit": "%"}, {"measurement": "remaining activity at 0.1 µM", "setting": "NEK2a", "result": 91, "unit": "%"}, {"measurement": "remaining activity at 0.1 µM", "setting": "NEK6", "result": 104, "unit": "%"}, {"measurement": "remaining activity at 0.1 µM", "setting": "PIM2", "result": 115, "unit": "%"}, {"measurement": "remaining activity at 0.1 µM", "setting": "ERK1", "result": 91, "unit": "%"}, {"measurement": "remaining activity at 0.1 µM", "setting": "CSK", "result": 99, "unit": "%"}, {"measurement": "remaining activity at 0.1 µM", "setting": "CK1", "result": 78, "unit": "%"}]}]}
